Assay results published in article PMC10681007, “Targeted Degradation of XIAP is Sufficient and Specific to Induce Apoptosis in MYCN-overexpressing High-risk Neuroblastoma” (Cancer Research Communications, 2023).
Starred links: 1 amine or outer side, 2 acyl side, 3 side chain; linkers in the order of their positions; H or OH if unused. Positions of bridges follow the written chain, without caps; N, C: chain ends. Non-standard residues stand in square brackets, D forms with d. Residues, ends and D or L forms follow the SMILES beside them. Chains are numbered I, II in the order given. Hexamethylenediamine = C(CCCN[*:2])CCN[*:1]; Dip = N[C@H](C(=O)O)C(c1ccccc1)c1ccccc1; Chg = N[C@H](C(=O)O)C1CCCCC1; NMeA = CN[C@@H](C)C(=O)O

Experiments:
XIAP and c-IAP1 = experiment: Immunoblot analysis of XIAP and c-IAP1 expression; format: cell-based, Human; details: 10 µmol/L
Description: FIGURE 2 Specific loss of XIAP expression, not c-IAP1, is required for mediating apoptosis in high-risk neuroblastoma cells. A, Summary of IAP antagonists’ efficacy in killing neuroblastoma cells. The IAP antagonists were ranked on the basis of the average potency of killing (IC50) and specificity of killing toward only neuroblastoma cells: (i) A4, (ii) B3, (iii) BV6, (iv) LCL161, (v) CUDC-427, (vi) Debio 1143. B, Immunoblot analysis of c-IAP1, XIAP, PARP, and cleaved caspase-3 expression in neuroblastoma cell lines, BE(2)-C and KELLY, and noncancerous normal tissue cell line, HS5, after treatment with 10 µmol/L of either A4, B3, or BV6 at indicated timings (three independent replicates). C, Graphical representation showing the fold change of caspase-3/7 activity relative to vehicle controls after treatment with 10 µmol/L of either A4, B3, or BV6 at indicated timings (data were expressed as mean ± SD of three independent experiments conducted in duplicates; *, P < 0.05). D, Morphology of cells 48 hours posttreatment with 10 µmol/L of either A4, B3, or BV6. […]
Whole cell lysates harvested were lysed in EBC buffer (pH 8.0 of 50 mM Tris, 0.5% NP-40, 120 mM sodium chloride) containing protease inhibitors and protein concentration were quantified using the Bradford assay (Thermo Fisher Scientific). […]

CHP212 = experiment: RealTime-Glo MT cell viability assay; format: cell-based, Human
Protocol: Cell viability was measured in real time using RealTime-Glo MT Cell Viability Assay as according to manufacturer's instructions from Promega. Cells were seeded at 1 × 10^4 cells per well and treated with a range of doses of indicated antagonists, followed by continuous bioluminescence reading every 24 hours for 3 days using luminescent plate reader, Varioskan (SkanIT software). IC50 was determined using GraphPad Prism software.
To determine their efficacy in neuroblastoma, a panel of neuroblastoma cell lines including neuroblastoma patient-derived cell lines and noncancerous normal tissue-derived cell lines were treated with increasing doses of each antagonist (0–100 µmol/L), followed by real-time measurement of cell viability every 24 for 72 hours.

CN[C@@H](C)C(=O)N[C@H](C(=O)N1CCC[C@H]1C(=O)N[C@H](C(=O)NCCCCCCNC(=O)[C@@H](NC(=O)[C@@H]1CCCN1C(=O)[C@@H](NC(=O)[C@H](C)NC)C1CCCCC1)C(c1ccccc1)c1ccccc1)C(c1ccccc1)c1ccccc1)C1CCCCC1 [BV6] (I: H-[NMeA][Chg]P[Dip] / II: H-[NMeA][Chg]P[Dip]; linker I:C-II:C via Hexamethylenediamine)
XIAP and c-IAP1 expression (immunoblot) (XIAP and c-IAP1; BE(2)-C and KELLY cells): loss of c-IAP1 expression with no change in XIAP expression | XIAP and c-IAP1 expression (immunoblot) (XIAP and c-IAP1; HS5 cells): loss of c-IAP1 expression with no changes in XIAP expression | IC50 (CHP212; CHP212, 24 hours): 10.4 µM | IC50 (CHP212; CHP212, 48 hours): 9.9 µM | IC50 (CHP212; CHP212, 72 hours): 9.3 µM
